This note sets out measurements from paper PMC10766610, “DCAF1-based PROTACs with activity against clinically validated targets overcoming intrinsic- and acquired-degrader resistance” (Nature Communications, 2024).

Assay [1] has as its target T1, BTK (Homo sapiens, UniProt Q06187). Description: BTK-GFP degradation by flow cytometry in TMD8 BTK-GFP/mCh cells. It counts as cell-based. Also on record: performed with full-length BTK and endogenous DCAF1; expressed in transfected cells; host or cells: TMD8 cells, lentiviral, blasticidin-selected (TMD8 BTK-GFP/mCh). The following applies: for DC50 / max. BTK degradation (%): 24 h. The protocol:
The bicistronic pLenti6 BTK-GFP-chysel-mCHERRY expression vector was cloned as described[92] using Gateway cloning with a pENTR-BTK plasmid lacking a STOP codon. TMD8 cells were then infected with lentiviral particles from this vector as described above and stably transfected cells were selected with blasticidin at a concentration of 10 μg/mL referred to as TMD8 BTK-GFP/mCh cells.
For flow cytometry measurements, 25,000 exponentially growing TMD8 BTK-GFP/mCh cells were plated in 100 μL of each well of a 96-well plate and grown for 24 h. Cells were then dosed with corresponding compounds and doses from 10 mM DMSO stock for 24 h, after which GFP and mCherry fluorescence was read with a Beckmann Coulter Cytoflex. For competition experiment, both compounds were added at the same time and dosed for 24 h. Cells were gated based on Forward & Side Scatter and selection for Single cells using SSC-A vs. SSC-H. Further, the population of viable cells was defined by the forward & side-scatter characteristics of DMSO-treated cells. To confirm cells outside of this population as non-viable, cells were plated and treated for 24 h, washed with PBS and stained for 30 min with two markers of early (Annexin-V) and late (LIVE/DEAD) apoptosis. Effects on viability were measured by the reduction of the percentage of cells included in this viable-population gate with increasing doses of compound tested. Degradation of BTK was calculated based on subtracting background (BG) fluorescence of parental TMD8 signal via (GFP-BG)/(mCherry-BG) of viable cells. Median ratios of three technical (different wells) replicates were used to calculate daily averages. Each compound dose–response was generated via three biological replicates (different days of experiment). Degradation curve parameters (DC50 & Abs. DC50 & max. Deg) were extracted using GraphPad Prism’s 4-parameter logistic curve fitting.

Another assay addresses T2, BTK kinase domain (Homo sapiens, UniProt Q06187).
T2 construct: BTK kinase domain was mixed in assay buffer
Description: BTK EPK assay (enzymatic inhibition). It counts as biochemical. On the procedure: BTK kinase domain was mixed in assay buffer containing 50 mM HEPES pH 7.5, 0.02% Tween20, 0.02 % bovine serum albumin, 1 mM DTT, 0.01 mM Na3VO4, 10 mM b-Glycerolphosphate, 18 mM MgCl2, 1 mM MnCl2 to a 2× concentration of 8 nM. This solution was added to pre-dispensed compound dilution series in black, 384 well -low dead volume plates (Greiner) and the reaction was initiated by the addition of ATP and a BTK consensus peptide (Sequence: 5-Fluo-Ahx-[…]-Nle-P-Nle-NAND-NH2) to a final assay concentrations of 0.047 mM and 0.002 mM, respectively in assay buffer. The reaction was stopped after 60 min at 32 °C by addition of the same volume of spot solution containing 100 mM HEPES pH 7.5, 5% DMSO, 10 mM EDTA, 0.015% Brij 35. Stopped reactions were analyzed on a Caliper LC3000, which was treated with the commercially available coating reagents CR−3 and CR-8 as instructed by the manufacturer. The relative intensities of phosphorylated peptide were calculated. Data was normalized to control wells containing 100 mM EDTA solution instead of the 2× kinase solutions (0%) and DMSO-only control wells (100%). Normalized data was fitted using a sigmoidal fit.

Assay [2] addresses T1, BTK. Description: Intracellular BTK engagement NanoBRET, intact HEK293A cells. The assay is classed as cell-based. The following applies: 2 h, read-out: IC50 BTK target engagement. The protocol:
Thus, HEK293A cells were batch-transfected by adding 1 μg pLenti6 BTK-Nanoluc vector and 9 μg Transfection Carrier DNA (pcDNA3.1 Hygro+) to 1 mL of Opti-MEM without phenol red (Thermo Fisher). After addition of 40 μL ViaFect (Promega) and incubation for 20 min, the DNA:lipid mixture was added to trypsinized HEK293A cells suspended at 2 × 10^5/mL in 10 ml growth medium. 100 μL of the resulting cell:DNA:lipid suspension was then seeded at 2 × 10^4 cells/well into white, clear-bottom 96-well plates (Costar) that were pre-coated with poly-D-Lysine by incubation for 60 min with 30 μL of a sterile-filtered solution of 0.1 mg PDL (Mpbio) dissolved in phosphate-buffered saline, followed by a wash with 200 μL sterile phosphate-buffered and airdrying. […] To measure BRET, NanoBRET NanoGlo substrate (Promega, final dilution of 1:1000) and Extracellular NanoLuc Inhibitor (Promega, final concentration 20 μM) were added, followed by quantification of donor and acceptor luminescence emission on a Pherastar FX (BMG Labtech) multimode reader using 460 nm band-pass and 610 nm long-pass filters, respectively. […]
The mBU values for each treated sample was then divided by the average mBU value determined based on four DMSO-treated vehicle control samples and multiplied by 100 to arrive at % of vehicle-treated control. […]
On the technique in general: BRET reads energy transfer from a luciferase to a nearby fluorophore.

[3] abbreviates: TMD8 BTK-GFP/mCh, read-out: Absolute DC50 BTK-Degradation.
Where [4] appears, read: TMD8 BTK-GFP/mCh, read-out: DC50 BTK-Degradation.
The mark [5] stands for this setting: Fig. 6b, read-out: DC50 BTK degradation (24h).

Where two headings read alike, the source gives them in different places.

T1 sequence (Q06187 2-659 limits assumed): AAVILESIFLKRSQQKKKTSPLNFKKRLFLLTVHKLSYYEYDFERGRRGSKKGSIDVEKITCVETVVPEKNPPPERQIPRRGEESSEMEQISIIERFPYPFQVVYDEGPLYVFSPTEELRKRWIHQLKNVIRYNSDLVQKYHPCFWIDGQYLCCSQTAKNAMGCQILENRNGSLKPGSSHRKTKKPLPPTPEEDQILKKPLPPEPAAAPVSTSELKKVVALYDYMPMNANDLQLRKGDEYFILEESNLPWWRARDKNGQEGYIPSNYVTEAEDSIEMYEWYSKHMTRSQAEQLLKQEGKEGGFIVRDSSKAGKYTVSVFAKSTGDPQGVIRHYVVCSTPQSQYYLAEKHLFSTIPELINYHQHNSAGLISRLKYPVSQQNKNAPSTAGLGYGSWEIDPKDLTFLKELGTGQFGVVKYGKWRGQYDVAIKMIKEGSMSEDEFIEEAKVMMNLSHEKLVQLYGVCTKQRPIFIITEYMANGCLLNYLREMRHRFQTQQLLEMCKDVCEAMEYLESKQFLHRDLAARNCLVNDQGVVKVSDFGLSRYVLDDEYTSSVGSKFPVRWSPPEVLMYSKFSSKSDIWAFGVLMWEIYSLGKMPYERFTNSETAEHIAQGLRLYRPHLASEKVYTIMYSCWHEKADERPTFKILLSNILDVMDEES
T2 sequence (Q06187 402-655 limits assumed): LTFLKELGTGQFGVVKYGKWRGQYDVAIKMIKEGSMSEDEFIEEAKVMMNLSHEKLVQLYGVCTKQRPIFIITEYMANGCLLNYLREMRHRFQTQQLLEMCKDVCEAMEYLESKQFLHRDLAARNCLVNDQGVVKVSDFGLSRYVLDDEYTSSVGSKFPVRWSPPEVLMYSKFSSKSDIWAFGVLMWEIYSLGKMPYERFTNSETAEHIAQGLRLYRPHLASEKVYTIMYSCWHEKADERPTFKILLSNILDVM

On to `Cc1nc(Nc2ncc(C(=O)Nc3c(C)cccc3Cl)s2)cc(N2CCC(OC3CCN(CCCCCCCC(=O)N4CCN(c5ccc6c(NCCN)nc(C7(c8ccc(Cl)cc8)CCCCC7)nc6c5)CC4)CC3)CC2)n1` [DDa-1], for which the DC50 at BTK [1] (setting [3]) is 146 nM; at BTK [1] (setting [4]) it was 91.3 nM; at BTK [1] (TMD8 BTK-GFP/mCh, read-out: DC50 BTK-GFP degradation), 90 nM.

As for `Cc1c(NC(=O)N2CC(O)(CC(C)(C)C)C2)cc(F)cc1-c1ncnc2[nH]c(-c3cnn(CC(=O)N4CCC5(CC4)CN(CCNC(=O)CCCC(=O)N4CCN(c6ccc7c(NCCN)nc(C8(c9ccc(Cl)cc9)CCCCC8)nc7c6)CC4)CCO5)c3)cc12` [DBt-10], the results for the IC50 against BTK kinase domain and at BTK [2] were 44 nM and 1680 nM, respectively. Moreover, at BTK [1] (Fig. 6b), the “max. BTK degradation (24h, %)” value is listed as 94%. In addition, the DC50 at BTK [1] (setting [5]) stood at 137 nM; at BTK [1] (setting [3]), 149 nM; on BTK [1] (setting [4]) it was 137 nM. Moreover, at BTK [1] (TMD8 BTK-GFP/mCh), the “max. BTK degradation (%)” value is reported as 94%.

For the compound `Cc1c(NC(=O)c2ccc(C(C)(C)O)cc2F)cc(F)cc1-c1ncnc2[nH]c(-c3ccc(CNCCOCCOCCOCCOCCOCCOCCOCCOCCOCCOCCOCCOCCC(=O)N4CCN(c5ccc6c(NCCN)nc(C7(c8ccc(Cl)cc8)CCCCC7)nc6c5)CC4)cc3)cc12` [DBt-5], the IC50 against BTK kinase domain came to 62 nM; at BTK [2] it was 392 nM. Also, on BTK [1] (Fig. 6b), the “max. BTK degradation (24h, %)” value is on record as 100%. In addition, the 50% degradation concentration (DC50) at BTK [1] (setting [5]), on BTK [1] (setting [3]) and at BTK [1] (setting [4]) was 50 nM each time. Also, the “max. BTK degradation (%)” value on BTK [1] (TMD8 BTK-GFP/mCh) is 100%.

Consider `CC(=O)N1CCN(c2ccc3c(NCCN)nc(C4(c5ccc(Cl)cc5)CCCCC4)nc3c2)CC1` [compound 13], for which the “max. BTK degradation (%)” value at BTK [1] (TMD8 BTK-GFP/mCh) came out at 0%. At BTK [1] (setting [4]), the DC50 is greater than 25000 nM.

In general, DC50 refers to the concentration at which degradation of the target reaches its halfway point. For orientation: IC50 means the concentration needed to halve the response being measured.
